Laboratory results reported in patent publication US4971967A, “Quinolinecarboxylic acid derivatives, antibacterial compositions and use” (Kanebo Ltd, priority 1989, dated 1990).
In brackets after ≈: the same amount, converted by molar mass.

Columns and labels:
[1] = system: Proteus mirabilis IFO 3849; assay: Antibacterial activity (MIC), Proteus mirabilis IFO 3849; assay type: cell-based; details: IFO3849; Proteus mirabilis IFO 3849, Gram -; read-out: Minimum inhibitory concentration (MIC)
Method in brief: (§1)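 Stock solutions (5000 μg/ml) were prepared in dilute alkali (0.1 N NaOH) for some compounds and in sterile water for others. After dilution to 1000 μg/ml standards, MIC testing proceeded per the Japan Society of Chemotherapy protocol.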

[2] = system: Streptococcus faecalis IID 682; assay: Antibacterial activity (MIC), Streptococcus faecalis IID 682; assay type: cell-based; details: Enterococcus faecalis, IID682, Streptococcus faecalis IID 682, Gram +; read-out: Minimum inhibitory concentration (MIC)
Method in brief: as §1

[3] = system: Enterobacter aerogenes ATCC 13048; assay: Antibacterial activity (MIC), Enterobacter aerogenes ATCC 13048; assay type: cell-based; details: Klebsiella aerogenes, ATCC13048; Enterobacter aerogenes ATCC 13048, Gram -; read-out: Minimum inhibitory concentration (MIC)
Method in brief: as §1

[4] = system: Serratia marcescens IAM 1184; assay: Antibacterial activity (MIC), Serratia marcescens IAM 1184; assay type: cell-based; details: Serratia marcescens, IAM1184, Serratia marcescens IAM 1184, Gram -; read-out: Minimum inhibitory concentration (MIC)
Method in brief: as §1

[5] = system: Salmonella typhimurium IID 971; assay: Antibacterial activity (MIC), Salmonella typhimurium IID 971; assay type: cell-based; details: Salmonella enterica; Salmonella typhimurium IID 971, Gram -; read-out: Minimum inhibitory concentration (MIC)
Method in brief: as §1

Shigella sonnei EW-33 = assay: Antibacterial activity (MIC), Shigella sonnei EW-33; assay type: cell-based; details: Shigella sonnei, EW33, Shigella sonnei EW-33, Gram -; read-out: Minimum inhibitory concentration (MIC)
Method in brief: as §1

[6] = system: Klebsiella pneumoniae PCI-602; assay: Antibacterial activity (MIC), Klebsiella pneumoniae PCI-602; assay type: cell-based; details: PCI602; Klebsiella pneumoniae PCI-602, Gram -; read-out: Minimum inhibitory concentration (MIC)
Method in brief: as §1

[7] = Low toxicity (Experiments 5 and 6); assay type: in vivo, ddY male mice; details: result in words
Method: The compound (A) or (J) of the present invention was suspended in 1% (w/v) aqueous gum arabic to prepare a suspension in concentration of 100 mg/ml. The suspension was orally administered to ddY male mice (5 weeks age, weighing 20 to 25 g, 5 mice in each group), which had been fasted for 18 hours, at a rate of 2000 mg/kg body weight of the compound (A) or (J).
(§2) The compound (O) or (P) of the present invention was suspended in sterilized distilled water to prepare a suspension. The suspension was orally adminstered to ddY male mice (5 weeks age, weighing 20 to 25 g, 5 mice in each group), which had been fasted for 18 hours.

[8] = system: Micrococcus luteus ATCC 9341; assay: Antibacterial activity (MIC), Micrococcus luteus ATCC 9341; assay type: cell-based; details: ATCC9341; Micrococcus luteus ATCC 9341, Gram +; read-out: Minimum inhibitory concentration (MIC)
Method in brief: as §1

Enterobacter cloacae 963 = assay: Antibacterial activity (MIC), Enterobacter cloacae 963; assay type: cell-based; details: Enterobacter cloacae, 963, Enterobacter cloacae 963, Gram -; read-out: Minimum inhibitory concentration (MIC)
Method in brief: as §1

[9] = Acute toxicity (LD50) (Experiment 6); details: mouse, in vivo; oral, mice fasted 18 hours, observed for a week
Method: as §2

[10] = system: Staphylococcus aureus FDA 209P JC-1; assay: Antibacterial activity (MIC), S. aureus FDA 209P JC-1; assay type: cell-based; details: FDA209P; Staphylococcus aureus FDA 209P JC-1, Gram +; read-out: Minimum inhibitory concentration (MIC)
Method in brief: as §1

[11] = system: Pseudomonas aeruginosa IFO 3445; assay: Antibacterial activity (MIC), P. aeruginosa IFO 3445; assay type: cell-based; details: Pseudomonas aeruginosa, IFO3445, Pseudomonas aeruginosa IFO 3445, Gram -; read-out: Minimum inhibitory concentration (MIC)
Method in brief: as §1

[12] = system: Staphylococcus epidermidis IAM-1296; assay: Antibacterial activity (MIC), S. epidermidis IAM-1296; assay type: cell-based; details: Staphylococcus epidermidis, IAM1296, Staphylococcus epidermidis IAM-1296, Gram +; read-out: Minimum inhibitory concentration (MIC)
Method in brief: as §1

[13] = system: Escherichia coli NIHJ JC-2; assay: Antibacterial activity (MIC), E. coli NIHJ JC-2; assay type: cell-based; details: NIHJJC2; Escherichia coli NIHJ JC-2, Gram -; read-out: Minimum inhibitory concentration (MIC)
Method in brief: as §1

[14] = system: Pseudomonas aeruginosa E-2; assay: Antibacterial activity (MIC), P. aeruginosa E-2; assay type: cell-based; details: E2; Pseudomonas aeruginosa E-2, Gram -; read-out: Minimum inhibitory concentration (MIC)
Method in brief: as §1

Escherichia coli KC-14 = assay: Antibacterial activity (MIC), E. coli KC-14; assay type: cell-based; details: KC14; Escherichia coli KC-14, Gram -; read-out: Minimum inhibitory concentration (MIC)
Method in brief: as §1

[15] = system: Pseudomonas aeruginosa NCTC 10490; assay: Antibacterial activity (MIC), P. aeruginosa NCTC 10490; assay type: cell-based; details: Pseudomonas aeruginosa, NCTC10490, Pseudomonas aeruginosa NCTC 10490, Gram -; read-out: Minimum inhibitory concentration (MIC)
Method in brief: as §1

[16] = system: Acinetobacter calcoaceticus AC 54; assay: Antibacterial activity (MIC), Acinetobacter calcoaceticus AC 54; assay type: cell-based; details: AC54; Acinetobacter calcoaceticus AC 54, Gram -; read-out: Minimum inhibitory concentration (MIC)
Method in brief: as §1

[17] = system: Morganella morganii IFO 3848; assay: Antibacterial activity (MIC), Morganella morganii IFO 3848; assay type: cell-based; details: Morganella morganii, IFO3848, Morganella morganii IFO 3848, Gram -; read-out: Minimum inhibitory concentration (MIC)
Method in brief: as §1

infection = assay: Protective effects against infection (Experiments 3 and 4); assay type: in vivo, ddY male mice; details: result in words
Method: (§3) The test microorganisms were subjected to standing culture in Trypto-Soya Agar "Nissui" (made by Nissui Seiyaku K.K., Japan) at 37° C. for 16 to 18 hours. The culture was then diluted with PBS (Dulbecco's phosphate buffered saline) and mixed with an equivalent amount of 10% (w/v) Mucin (BACTO MUCIN BACTERIOLOGICAL, made by Difco Co.) to prepare a microorganism solution. The thus prepared microorganism solution (0.5 ml each) was intraperitoneally inoculated to ddY male mice (5 weeks age, weighing 25-28 g, 5 mice in each group), to infect the animals. One hour after the infection, the compound (A) or (J) of the present invention or the known compound (X) suspended in 1% (w/v) aqueous gum arabic or the known compound (Y) dissolved in sterilized distilled water was orally adiministered to mice.
(§4) The mice were daily observed for one week, and from the survival number of mice after one week, the 50% effective dose (ED50) was calculated by Weil method.
(§5) The procedure of Experiment 3 was repeated except that ddY male mice weighing 24 to 28 g were employed.

[18] = system: Citrobacter freundii NIHJ 10018-68; assay: Antibacterial activity (MIC), Citrobacter freundii NIHJ 10018-68; assay type: cell-based; details: Citrobacter freundii, NIHJ10018, Citrobacter freundii NIHJ 10018-68, Gram -; read-out: Minimum inhibitory concentration (MIC)
Method in brief: as §1

[19] = system: Staphylococcus aureus IID 803; assay: Effect on treatment of general infectious disease, S. aureus IID 803 (Experiment 4); assay type: in vivo, ddY male mice infected with Staphylococcus aureus; details: IID803, 168 h, oral, 1 h after i.p. infection, 2.1×10^7 CFU/mouse, survival after one week
Method: as §3, §4
Staphylococcus aureus IID 803 (2.1×10^7 CFU/mouse)
as §5

[20] = system: Pseudomonas aeruginosa E-2; assay: Effect on treatment of general infectious disease, P. aeruginosa E-2 (Experiment 4); assay type: in vivo, ddY male mice infected with Pseudomonas aeruginosa; details: E2, 168 h, oral, 1 h after i.p. infection, 3.4×10^4 CFU/mouse, survival after one week
Method: as §3, §4
Pseudomonas aeruginosa E-2 (3.4×10^4 CFU/mouse)
as §5

[21] = system: Staphylococcus aureus IID 803; assay: Antibacterial activity (MIC), S. aureus IID 803; assay type: cell-based; details: IID803; Staphylococcus aureus IID 803, Gram +; read-out: Minimum inhibitory concentration (MIC)
Method in brief: as §1

[22] = system: Bacillus subtilis ATCC 6633; assay: Antibacterial activity (MIC), Bacillus subtilis ATCC 6633; assay type: cell-based; details: Bacillus subtilis, ATCC6633, Bacillus subtilis ATCC 6633, Gram +; read-out: Minimum inhibitory concentration (MIC)
Method in brief: as §1

Proteus vulgaris OX-19 = assay: Antibacterial activity (MIC), Proteus vulgaris OX-19; assay type: cell-based; details: OX19; Proteus vulgaris OX-19, Gram -; read-out: Minimum inhibitory concentration (MIC)
Method in brief: as §1

Row | SMILES | MIC [1] [µg/mL] | MIC [2] [µg/mL] | MIC [3] [µg/mL] | MIC [4] [µg/mL] | MIC [5] [µg/mL] | MIC (Shigella sonnei EW-33) [µg/mL] | MIC [6] [µg/mL] | toxicity [7] | MIC [8] [µg/mL] | MIC (Enterobacter cloacae 963) [µg/mL] | LD50 at 168 h [9] [mg/kg] | MIC [10] [µg/mL] | MIC [11] [µg/mL] | MIC [12] [µg/mL] | MIC [13] [µg/mL] | MIC [14] [µg/mL] | MIC (Escherichia coli KC-14) [µg/mL] | MIC [15] [µg/mL] | MIC [16] [µg/mL] | MIC [17] [µg/mL] | further results
1 | CC1CN(c2c(F)cc3c(=O)c(C(=O)O)c4scc5n4c3c2N(C)C5)CC(C)N1C (stereo not drawn) [Compound (P), 9,1-(Methylimino)methano-7-fluoro-8-(3,4,5-trimethyl-1-piperazinyl)-5-oxo-5H-thiazolo[3,2-a]quinoline-4-carboxylic acid] | 0.78 (≈ 1.81 µM) | 0.2 (≈ 0.465 µM) | 0.2 (≈ 0.465 µM) | 1.56 (≈ 3.62 µM) | 0.39 (≈ 0.906 µM) | 0.05 (≈ 0.116 µM) | 0.006 (≈ 0.0139 µM) | low toxicity | 0.39 (≈ 0.906 µM) | 0.2 (≈ 0.465 µM) | 1070 | 0.025 (≈ 0.0581 µM) | 3.13 (≈ 7.27 µM) | 0.1 (≈ 0.232 µM) | 0.1 (≈ 0.232 µM) | 1.56 (≈ 3.62 µM) | 0.1 (≈ 0.232 µM) | 1.56 (≈ 3.62 µM) | 0.025 (≈ 0.0581 µM) | 0.39 (≈ 0.906 µM) | protective effects against infection (infection): excellent protective effects against infection; MIC [18]: 1.56 µg/mL (≈ 3.62 µM); ED50 [19]: 1.9 mg/kg; ED50 [20]: 11.1 mg/kg; MIC [21]: 0.025 µg/mL (≈ 0.0581 µM); MIC [22]: 0.006 µg/mL (≈ 0.0139 µM); MIC (Proteus vulgaris OX-19): 0.1 µg/mL (≈ 0.232 µM)
2 | CC1CN(c2c(F)cc3c(=O)c(C(=O)O)c4scc5n4c3c2N(C)C5)CCN1C (stereo not drawn) [Compound (O), 9,1-(Methylimino)methano-7-fluoro-8-(3,4-dimethyl-1-piperazinyl)-5-oxo-5H-thiazolo[3,2-a]-quinoline-4-carboxylic acid] | 0.39 (≈ 0.936 µM) | 0.1 (≈ 0.24 µM) | 0.1 (≈ 0.24 µM) | 0.39 (≈ 0.936 µM) | 0.2 (≈ 0.48 µM) | 0.05 (≈ 0.12 µM) | 0.006 (≈ 0.0144 µM) | low toxicity | 0.39 (≈ 0.936 µM) | 0.1 (≈ 0.24 µM) | 1410 | 0.025 (≈ 0.06 µM) | 1.56 (≈ 3.75 µM) | 0.05 (≈ 0.12 µM) | 0.05 (≈ 0.12 µM) | 0.78 (≈ 1.87 µM) | 0.05 (≈ 0.12 µM) | 0.78 (≈ 1.87 µM) | 0.025 (≈ 0.06 µM) | 0.2 (≈ 0.48 µM) | protective effects against infection (infection): excellent protective effects against infection; MIC [18]: 0.39 µg/mL (≈ 0.936 µM); ED50 [19]: 2.8 mg/kg; ED50 [20]: 9.4 mg/kg; MIC [21]: 0.025 µg/mL (≈ 0.06 µM); MIC [22]: 0.0125 µg/mL (≈ 0.03 µM); MIC (Proteus vulgaris OX-19): 0.025 µg/mL (≈ 0.06 µM)
